Results from patent US20160000787A1, “INHIBITORS OF CDK8/19 FOR USE IN TREATING ESTROGEN RECEPTOR POSITIVE BREAST CANCER” (SENEX BIOTECHNOLOGY, INC., priority 2013, published 2016).

Tests used:
Type in all cases: cell-based
[1] = system: MCF7 cells; test: Growth inhibition, 6-day treatment, Coulter counter; settings: 6 days
Description: (§1) Both MCF7-1pE and MCF7-Veh are resistant to tamoxifen and MCF7-Veh is also resistant to fulvestrant.

[2] = system: BT474 cells; test: as above; settings: 6 days
Description: as §1

[3] = system: MCF7-Veh cells; test: as above; settings: 6 days
Description: as §1

[4] = system: T47D cells; test: as above; settings: 6 days
Description: as §1

[5] = system: MCF7-1pE cells; test: as above; settings: 6 days
Description: as §1

[6] = system: estrogen-depleted MCF7 cells; test: Estrogen (E2) mitogenic stimulation assay, flow cytometric cell counting; settings: for decrease of cell number: 4 days after E2 addition, fulvestrant 1 nM and/or Senexin A 1 μM; for effect on E2-stimulated cell growth: 10 nM E2
Experimental: To test the effect of CDK8/19 inhibition on the mitogenic effect of estrogen in estrogen-responsive BrCa cells, MCF7 cells (ER+BrCa line) were placed into estrogen-depleted phenol red-free media with 10% charcoal-stripped serum. Under these conditions cells are largely but not completely estrogen-depleted (full depletion would require adapting the cells to low serum, since the cells can synthesize estrogen from serum components). Cells were then plated in the presence or absence of Senexin A (at 1 μM and 5 μM concentrations), and either 10 nM of the estrogen 17-β-estradiol (E2) or vehicle control were added on the following day. Cell growth was measured by flow cytometric counting of live (PI-negative) and dead (PI-positive) cells over 4 days.
The interaction between Senexin A and fulvestrant in MCF7 cells was investigated in the estrogen (E2) mitogenic stimulation assay, carried out as described in example 1, with the cell number measured by flow cytometry 4 days after E2 addition.

[7] = system: MCF7 cells; test: Time course of cell growth over 7 days, Coulter counter; settings: different concentrations
Description: (§2) Senexin A alone inhibited cell growth, with the strongest effects observed in the estrogen-dependent lines T47D and parental MCF7 and the weakest effects in cell lines that are fully or partially estrogen-independent (MCF7-Veh, MCF7-1p).

[8] = system: BT474 cells; test: as above; settings: different concentrations
Description: as §2

[9] = system: T47D cells; test: as above; settings: different concentrations
Description: as §2

[10] = system: MCF7-Veh cells; test: Long-term (11-day) drug treatment, crystal violet staining
[11] = system: MCF7-1pE cells; test: as above
[12] = system: TFF1 expression in estrogen-depleted MCF7 cells; test: QPCR analysis of estrogen-inducible gene expression; settings: two concentrations of Senexin A, with or without E2
Description: (§3) Rae et al., (2005) used microarray profiling to analyze the effects of E2 and ER antagonists on gene expression in three ER+BrCa cell lines, MCF7, T47D and BT-474. […] The cytokine CXCL12 was also shown to mediate the mitogenic effect of E2 (Sauve et al., 2009) and, together with its receptor CXCR4, to be a key determinant of metastasis in cancers of the breast and other organs (Muller et al., 2001; Rhodes et al., 2011). […] The effect of Senexin A on CXCL12, a known mediator of metastasis, is of particular interest as a possible cause of the association of CDK8 expression with shorter RFS.

[13] = system: GREB1 expression in estrogen-depleted MCF7 cells; test: as above; settings: two concentrations of Senexin A, with or without E2
Description: as §3

[14] = system: CXCL12 expression in estrogen-depleted MCF7 cells; test: as above; settings: two concentrations of Senexin A, with or without E2
Description: as §3

[15] = system: ER-dependent ERE-containing promoter in T47D-ER/Luc cells; test: ER-dependent ERE promoter luciferase reporter assay; settings: different concentrations; 10 nM E2 added 1 h later; read 18 hrs later
Experimental: To determine whether the effect of CDK8 on ER-inducible gene expression is mediated through inhibition of the transcriptional effect of ER, which is exerted through ER binding to the ERE promoter element, a T47D-based reporter cell line was used. The cell line T47D-ER/Luc (obtained from Signosis) expresses firefly luciferase from the ER-dependent ERE-containing promoter. The reporter cell line was estrogen-depleted, then Senexin A was added at different concentrations, and one hour later 10 nM E2 was added. 18 hrs later, cells were counted and luciferase activity was measured.

[16] = Homo sapiens, 144 h, FUL 1 nM, alone or with SenA 5 μM, read-out: % growth inhibition relative to control
[17] = Homo sapiens, 144 h, FUL 10 nM, alone or with SenA 5 μM, read-out: % growth inhibition relative to control
[18] = 144 h, FUL 1 nM, alone or with SenA 5 μM, read-out: % growth inhibition relative to control
[19] = 144 h, FUL 10 nM, alone or with SenA 5 μM, read-out: % growth inhibition relative to control
[20] = Homo sapiens, 144 h, TAM 1 μM, alone or with SenA 5 μM, read-out: % growth inhibition relative to control
[21] = Homo sapiens, 144 h, TAM 5 μM, alone or with SenA 5 μM, read-out: % growth inhibition relative to control
[22] = 144 h, TAM 1 μM, alone or with SenA 5 μM, read-out: % growth inhibition relative to control
[23] = 144 h, TAM 5 μM, alone or with SenA 5 μM, read-out: % growth inhibition relative to control

SMILES: C[C@]12CC[C@@H]3c4ccc(O)cc4C[C@@H](CCCCCCCCC[S+]([O-])CCCC(F)(F)C(F)(F)F)[C@H]3[C@@H]1CC[C@@H]2O (stereo partly shown) [FUL, fulvestrant]
- inhibition at 0.001 µM [1, 16]: 62%
- inhibition at 0.01 µM [1, 17]: 63.6%
- inhibition at 0.001 µM ([2]; Homo sapiens, BT-474, 144 h, FUL 1 nM, alone or with SenA 5 μM, read-out: % growth inhibition relative to control): 17.7%
- inhibition at 0.01 µM ([2]; Homo sapiens, BT-474, 144 h, FUL 10 nM, alone or with SenA 5 μM, read-out: % growth inhibition relative to control): 22.6%
- inhibition at 0.001 µM [3, 18]: 12.4%
- inhibition at 0.01 µM [3, 19]: 28%
- inhibition at 0.001 µM [4, 16]: 56.5%
- inhibition at 0.01 µM [4, 17]: 58.2%
- inhibition at 0.001 µM [5, 18]: 49.7%
- inhibition at 0.01 µM [5, 19]: 57.2%
- decrease of cell number [6]: 27%

SMILES: N#Cc1ccc2ncnc(NCCc3ccccc3)c2c1 [Senexin A]
- growth inhibition, time course [7]: concentration-dependent growth inhibition
- growth inhibition, time course [8]: concentration-dependent growth inhibition
- growth inhibition, time course [9]: concentration-dependent growth inhibition
- % growth inhibition relative to control ([1]; SenA 5 μM): 37%
- % growth inhibition relative to control ([2]; SenA 5 μM): 23.9%
- % growth inhibition relative to control ([3]; SenA 5 μM): 15.5%
- % growth inhibition relative to control ([4]; SenA 5 μM): 48%
- % growth inhibition relative to control ([5]; SenA 5 μM): 19.1%
- potentiation of fulvestrant effects [10]: especially apparent
- potentiation of fulvestrant effects [11]: especially apparent
- TFF1 expression (QPCR) [12]: inhibited
- GREB1 expression (QPCR) [13]: inhibited
- CXCL12 expression (QPCR) [14]: inhibited
- effect on E2-stimulated cell growth ([6]; 1 μM Senexin A, over 4 days): partial effect
- effect on E2-stimulated cell growth ([6]; 5 μM Senexin A, over 4 days): abolished
- effect on cell growth without E2 addition ([6]; 5 μM Senexin A, no E2, over 4 days): inhibited cell growth without E2 addition but to a lesser extent
- decrease of cell number [6]: 5%
- nature of effect / induction of cell death (PI-positive cells) ([6]; Senexin A 1 μM and 5 μM, over 4 days): cytostatic and were not associated with any significant induction of cell death
- transcription from ER-dependent promoter (luciferase activity) [15]: strongly inhibited

SMILES: CN1CCN(C(=O)c2ccc3cc(CCNc4ncnc5ccc(C#N)cc45)ccc3c2)CC1 [Senexin B]
- growth inhibition, time course [7]: concentration-dependent growth inhibition
- growth inhibition, time course [8]: concentration-dependent growth inhibition
- growth inhibition, time course [9]: concentration-dependent growth inhibition

SMILES: CC/C(=C(\c1ccc(O)cc1)c1ccc(OCCN(C)C)cc1)c1ccccc1 [TAM, 4-OH tamoxifen]
- inhibition at 1 µM [1, 20]: 34.8%
- inhibition at 5 µM [1, 21]: 50.7%
- inhibition at 1 µM ([2]; Homo sapiens, BT-474, 144 h, TAM 1 μM, alone or with SenA 5 μM, read-out: % growth inhibition relative to control): 28.8%
- inhibition at 5 µM ([2]; Homo sapiens, BT-474, 144 h, TAM 5 μM, alone or with SenA 5 μM, read-out: % growth inhibition relative to control): 42.3%
- inhibition at 1 µM [3, 22]: 2.6%
- inhibition at 5 µM [3, 23]: 1%
- inhibition at 1 µM [4, 20]: 54.6%
- inhibition at 5 µM [4, 21]: 62.3%
- inhibition at 1 µM [5, 22]: -1.3%
- inhibition at 5 µM [5, 23]: 1.5%
